Experimental data: paper PMC4627231, “Targeting the sugar metabolism of tumors with a first-in-class 6-phosphofructo-2-kinase (PFKFB4) inhibitor” (Oncotarget, 2015)

How the values were obtained:
[1] = test system: H460 human lung adenocarcinoma xenografts; experiment: H460 xenograft growth in athymic mice; type: in vivo, BALB/c athymic mice; conditions: 120 mg/kg daily by gavage
Method: For xenograft studies, LLC or H460 cells collected from exponential growth phase culture were washed and resuspended in PBS. Groups of female C57BL/6 mice were injected with LLC cells (n=10 per group, s.c., 1×10^6 cells) and groups of female BALB/c athymic mice (Charles River) were injected with H460 cells (n=10 per group, s.c, 5 × 10^6 cells). Tumor masses were determined in a blinded fashion with Vernier calipers using the formula: mass (mg) = (width, mm)^2 X (length, mm)/2 as previously described. When tumor masses were 150-200 mg, mice were randomized to daily DMSO or 5MPN (in 30% Captisol, 100 μl, by gavage). Tumor measurements and body weights were followed daily. All data are expressed as the mean ± SD of two experiments. Statistical significance was assessed by the two-sample t test (independent variable).

[2] = test system: normal human bronchial epithelial (NHBE) cells; experiment: Viable cell count (trypan blue exclusion); type: cell-based; conditions: live cells counted at 48 hours
Method: Viability was determined using trypan blue exclusion as previously described. Cells were incubated in 20% trypan blue (Sigma) for 5 minutes. Cells excluding trypan blue were counted using a standard hemocytometer (Hausser Scientific) to determine total numbers of viable cells. Data are expressed as mean ± SD of three experiments.

[3] = test system: Large T antigen-immortalized, tamoxifen-inducible PFKFB4-/- fibroblasts; experiment: Viable cell count (trypan blue exclusion); type: cell-based, mice; conditions: fibroblasts ± 10 μM 4HT, 10 μM 5MPN, 24 hours
From the text: H460, H1299, H441, H522 and A549 non-small cell lung cancer (NSCLC), MDA-MB-231 (breast), LNCaP (prostatic) and HCT116 (colon) adenocarcinoma and Lewis lung carcinoma (LLC) cell lines were obtained from ATCC (authenticated by STR analysis) and were used within 6 months of acquisition. PFKFB4^−/− ear pinna fibroblasts isolated from TamCre/loxP/PFKFB4^−/− mice were immortalized as described previously. Normal bronchial epithelial cells (NHBE) were obtained from Lonza and NHBE cells expressing telomerase, SV40 large T antigen and activated Ras (hT/LT/Ras) were a gift from Dr. B. J. Rollins, Dana Farber Cancer Institute. All cell lines were tested and found negative for mycoplasma (PCR Mycoplasma Detection Kit, ABM). Cell lines were grown in DMEM (A549, LNCaP, MDA-MB-231, LLC and PFKFB4^−/−), RPMI 1640 (H460, H1299, H441, H522) and McCoy's 5A media (HCT116) (all from Invitrogen) containing 10% fetal calf serum (Hyclone). NHBE and hT/LT/Ras cells were grown in BEGM containing SingleQuots (Lonza). All lines were cultured at 37°C in 5% CO2. […]
Viability was determined using trypan blue exclusion as previously described. […] Cells excluding trypan blue were counted using a standard hemocytometer (Hausser Scientific) to determine total numbers of viable cells. Data are expressed as mean ± SD of three experiments.

[4] = test system: intracellular F2,6BP in H460 cells; experiment: F2,6BP measurement in H460 cells; type: cell-based, human; conditions: for [F2,6BP]: 24 hours (DMSO 6.1 ±0.2)
Method: Cells or tissues were prepared as previously described and F2,6BP content measured using a coupled enzyme reaction following the method of Van Schaftingen et al and normalized to total cellular protein measured by the bicinchoninic acid assay (Thermo Scientific). All data are expressed as the mean ± SD of three experiments. Statistical significance was assessed by the two-sample t test (independent variable).

[5] = test system: Ki67-positive cells in LLC xenografts; experiment: Ki67 immunohistochemistry of LLC tumors; type: in vivo, C57BL/6 mice; conditions: oral administration
Method: Five μm mounted sections of formalin-fixed, paraffin-embedded LLC tumor tissues were processed as previously described and then incubated with anti-Ki-67 primary antibody (Abcam) overnight, followed by HRP-linked goat anti-rabbit secondary antibody (1:300, Pierce). Sections were developed with 3,3′-diaminobenzidine tetrahydrochloride and counterstained as previously described. Slides were scanned using a ScanScope XT Digital Slide Scanner (Aperio), data analyzed with the positive pixel count algorithm (ImageScope, Aperio) and a minimum of 5 fields (20x magnification) were quantified for each tumor section. The data are depicted as % positive pixels/total pixels ± SD.

[6] = test system: panel of 97 protein kinases; experiment: KINOMEscan active-site dependent competition binding assay; conditions: 10 μM, data not shown
Method: The fructose-6-phosphate kinase activity of human recombinant PFKFB4 and human recombinant PFKFB3 in the presence of DMSO ± indicated concentrations of 5MPN was assayed as previously described. The activity of 5MPN against 97 kinases was examined using a commercially available active-site dependent competition binding assay core service (KINOMEscanEDGE) that quantifies the capacity of test agents to compete with an immobilized, active-site directed ligand using a DNA-tagged kinase and immobilized ligand and compound.

human recombinant PFKFB4 = human recombinant PFKFB4 (Homo sapiens, UniProt Q16877); experiment: In vitro kinase assay with purified recombinant human PFKFB4; type: biochemical; conditions: Lineweaver-Burk analyses
Sequence of human recombinant PFKFB4 (Q16877 whole entry): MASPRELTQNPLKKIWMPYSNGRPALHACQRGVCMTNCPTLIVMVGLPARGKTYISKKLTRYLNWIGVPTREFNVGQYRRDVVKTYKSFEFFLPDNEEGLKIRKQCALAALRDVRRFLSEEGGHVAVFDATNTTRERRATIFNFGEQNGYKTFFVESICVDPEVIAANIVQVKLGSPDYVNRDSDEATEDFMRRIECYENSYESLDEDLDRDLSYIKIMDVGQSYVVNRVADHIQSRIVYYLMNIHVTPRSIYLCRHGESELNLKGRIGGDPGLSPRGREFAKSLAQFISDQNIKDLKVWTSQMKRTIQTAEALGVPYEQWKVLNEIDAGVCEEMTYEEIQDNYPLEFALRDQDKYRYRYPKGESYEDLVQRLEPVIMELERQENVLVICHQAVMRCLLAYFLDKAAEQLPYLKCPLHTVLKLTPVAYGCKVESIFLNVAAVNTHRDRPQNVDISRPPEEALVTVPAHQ
Method: Figure 1 Compound 5MPN inhibits recombinant PFKFB4 enzyme activity A. Representation of the 5MPN molecule docked in the crystal structure of rat testes PFKFB4. 5MPN is shown in thicker stick representation than the surrounding protein residues. B. Molecular structure of 5MPN (MW, 305.3 Da). In vitro kinase assays using purified recombinant human PFKFB4 were performed as described in the presence or absence of 0.1, 1 or 10 μM 5MPN. Michaelis-Menten C. and Lineweaver-Burk double reciprocal D. plots examining PFKFB4 enzyme activity as a function of F6P concentration (0 - 2000 μmol/L) are shown. E. In vitro kinase assays using purified recombinant human PFKFB3 were performed as described in the presence or absence of 0.1, 1 or 10 μM 5MPN and the Michaelis-Menten plot examining PFKFB3 enzyme activity as a function of F6P concentration (0 - 400 μmol/L) is shown. Data shown are representative of three independent experiments. […] The activity of 5MPN against 97 kinases was examined using a commercially available active-site dependent competition binding assay core service (KINOMEscanEDGE) that quantifies the capacity of test agents to compete with an immobilized, active-site directed ligand using a DNA-tagged kinase and immobilized ligand and compound.

COc1cccc2c(NCCCCCO[N+](=O)[O-])ccnc12 [Compound 5MPN, 5-(n-(8-methoxy-4-quinolyl)amino)pentyl nitrate]
body weight ([1]; H460-bearing BALB/c athymic mice): without affecting body weight | tumor growth ([1]; H460 xenografts in BALB/c athymic mice): suppressed the growth | effect on cell growth [2]: virtually unaffected | effect of genomic deletion of Pfkfb4 on anti-proliferative effect [3]: sensitized | [F2,6BP] ([4]; 5μM 5MPN): 2.3 ±0.05 pmol/mg protein | [F2,6BP] ([4]; 10μM 5MPN): 1.52 ±0.2 pmol/mg protein | [F2,6BP] ([4]; 20 μM 5MPN): 0.75±0.09 pmol/mg protein | [F2,6BP] ([4]; 30 μM 5MPN): 0.43 ±0.1 pmol/mg protein | effect of PFKFB4 over-expression on the reduction in F2,6BP caused by 5MPN ([4]; Vec vs FB4, 10 μM 5MPN, 24 hours): reversed | Ki67-positive cells [5]: reduction | inhibition of a panel of 97 protein kinases [6]: not inhibited | mode of inhibition (human recombinant PFKFB4): competitive inhibitor of the F6P binding site | Ki (human recombinant PFKFB4; F6P as substrate, read-out: Ki for 5MPN inhibition): 8.6 ± 1.9 µM
